9 compounds from patent publication US12227500B2, “Substituted pyrrolo[2,3-b]pyridines for suppressing toxic endoplasmic reticulum stress” (THE TRUSTEES OF COLUMBIA UNIVERSITY IN THE CITY OF NEW YORK, priority 2018, dated 2025) can be followed below.

Where two headings read alike, the source gives them in different places.

In assay [1] the test system is human ES motor neurons carrying the ALS-causing SOD1^A4V mutation. The assay is described as follows: cells. Format: cell-based. Conditions: 72 h, 72 h; for EC50 / Emax: CPA 33 μM; for viability at 1 µM: CPA (33 μM) + compound (1 μM), read-out: Motor Neuron Survival, % untreated; for Emax: read-out: Emax (MN survival % untreated). The protocol:
Next, survival assays were performed with all the analogs at once to generate a low-variability dataset. All compounds were evaluated at concentrations ranging from 0.1-3.0 μM (five-point dilution) in three technical replicates and two biological replicates.

Another assay addresses T1, MLK1/MAP3K9 (Homo sapiens, UniProt P80192).
T1 construct: purchased Reaction Biology Corp
The assay is described as follows: Radiolabeled ATP kinase assay (Reaction Biology Corp.), MLK1. Format: biochemical. Conditions: [Cmpd] 0.1 μM, 10 μM ATP. How it is done:
(§1) Meanwhile, the same analogs were analyzed in a radiolabeled ATP assay (10 μM ATP; Reaction Biology Corp.) to compare the extent to which they could inhibit the activity of HGK, MLK1, or MLK3 in a cell-free environment (Table S3 and S4).

For a further assay, the target named is T2, MLK3/MAP3K11 (Homo sapiens, UniProt Q16584).
T2 construct: purchased Reaction Biology Corp
The assay is described as follows: Radiolabeled ATP kinase assay (Reaction Biology Corp.), MLK3. Format: biochemical. Conditions: [Cmpd] 0.1 μM; 10 μM ATP. The protocol:
as §1

For a further assay, the target named is HGK/MAP4K4 (Homo sapiens, UniProt O95819). The assay is described as follows: Radiolabeled ATP kinase assay (Reaction Biology Corp.), HGK. Type of assay: biochemical. Also on record: purchased Reaction Biology Corp. Conditions: 10 μM ATP, read-out: % Enzyme Activity (relative to DMSO controls), HGK/MAP4K4, Data 1; for remaining activity at 0.025 µM: [Cmpd] 0.025 μM; for remaining activity at 0.1 µM: [Cmpd] 0.1 μM. How it is done: as §1

[2] abbreviates: Homo sapiens, Neuron, read-out: EC50.
[3] abbreviates: read-out: % Enzyme Activity Remaining (relative to DMSO controls), MLK1/MAP3K9, Data 1.
[4] abbreviates: read-out: % Enzyme Activity Remaining (relative to DMSO controls), MLK1/MAP3K9, Data 2.

T2 sequence (Q16584 whole entry): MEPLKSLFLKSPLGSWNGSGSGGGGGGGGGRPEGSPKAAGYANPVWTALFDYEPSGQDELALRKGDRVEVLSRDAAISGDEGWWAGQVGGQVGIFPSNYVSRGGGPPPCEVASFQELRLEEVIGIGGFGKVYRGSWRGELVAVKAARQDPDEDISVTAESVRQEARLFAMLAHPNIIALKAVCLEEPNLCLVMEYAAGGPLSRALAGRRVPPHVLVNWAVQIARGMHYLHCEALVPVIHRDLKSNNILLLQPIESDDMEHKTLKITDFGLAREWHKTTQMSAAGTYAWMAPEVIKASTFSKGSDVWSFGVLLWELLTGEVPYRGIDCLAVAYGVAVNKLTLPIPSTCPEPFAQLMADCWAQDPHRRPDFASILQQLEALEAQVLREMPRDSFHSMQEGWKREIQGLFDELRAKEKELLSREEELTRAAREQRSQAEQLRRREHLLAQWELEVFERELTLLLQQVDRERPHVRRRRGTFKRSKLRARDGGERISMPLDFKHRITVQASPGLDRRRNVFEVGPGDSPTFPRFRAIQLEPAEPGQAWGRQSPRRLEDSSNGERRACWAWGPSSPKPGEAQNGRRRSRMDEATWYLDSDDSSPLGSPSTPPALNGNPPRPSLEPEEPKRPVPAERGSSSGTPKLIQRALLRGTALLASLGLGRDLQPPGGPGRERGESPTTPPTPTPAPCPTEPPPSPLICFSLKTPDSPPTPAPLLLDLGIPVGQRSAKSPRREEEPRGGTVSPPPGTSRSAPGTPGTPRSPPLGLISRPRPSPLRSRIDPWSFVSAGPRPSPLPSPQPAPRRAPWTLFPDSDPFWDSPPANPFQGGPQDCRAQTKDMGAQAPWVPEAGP
T1 sequence (P80192 whole entry): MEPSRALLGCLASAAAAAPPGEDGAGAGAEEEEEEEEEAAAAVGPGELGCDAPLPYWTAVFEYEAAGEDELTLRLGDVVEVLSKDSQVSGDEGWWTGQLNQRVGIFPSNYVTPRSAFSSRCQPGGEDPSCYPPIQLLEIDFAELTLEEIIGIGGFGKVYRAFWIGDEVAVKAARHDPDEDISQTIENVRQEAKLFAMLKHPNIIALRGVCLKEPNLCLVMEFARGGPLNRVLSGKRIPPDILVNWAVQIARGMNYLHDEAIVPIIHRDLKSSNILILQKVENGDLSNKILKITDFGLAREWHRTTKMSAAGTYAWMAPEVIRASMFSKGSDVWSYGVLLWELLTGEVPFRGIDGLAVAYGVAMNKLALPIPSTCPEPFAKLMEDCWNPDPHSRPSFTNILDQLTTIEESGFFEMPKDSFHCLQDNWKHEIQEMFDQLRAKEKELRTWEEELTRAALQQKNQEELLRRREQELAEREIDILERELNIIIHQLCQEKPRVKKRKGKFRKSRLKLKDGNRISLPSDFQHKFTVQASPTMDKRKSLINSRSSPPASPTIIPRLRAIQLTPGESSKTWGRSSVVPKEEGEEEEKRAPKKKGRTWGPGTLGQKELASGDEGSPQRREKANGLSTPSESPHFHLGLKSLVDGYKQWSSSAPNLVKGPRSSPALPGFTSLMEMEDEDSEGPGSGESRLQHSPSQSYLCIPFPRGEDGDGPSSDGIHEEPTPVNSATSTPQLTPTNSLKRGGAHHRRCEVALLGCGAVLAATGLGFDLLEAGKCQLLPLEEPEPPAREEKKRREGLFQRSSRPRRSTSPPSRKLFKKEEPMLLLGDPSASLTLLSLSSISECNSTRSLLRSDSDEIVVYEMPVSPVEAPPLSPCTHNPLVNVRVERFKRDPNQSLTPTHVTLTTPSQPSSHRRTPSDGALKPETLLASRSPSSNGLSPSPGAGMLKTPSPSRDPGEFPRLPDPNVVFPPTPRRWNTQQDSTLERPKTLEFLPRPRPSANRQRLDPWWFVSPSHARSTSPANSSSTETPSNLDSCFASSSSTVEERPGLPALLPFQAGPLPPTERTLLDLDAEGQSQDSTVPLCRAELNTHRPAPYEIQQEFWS
Sequence of HGK/MAP4K4 (O95819 whole entry): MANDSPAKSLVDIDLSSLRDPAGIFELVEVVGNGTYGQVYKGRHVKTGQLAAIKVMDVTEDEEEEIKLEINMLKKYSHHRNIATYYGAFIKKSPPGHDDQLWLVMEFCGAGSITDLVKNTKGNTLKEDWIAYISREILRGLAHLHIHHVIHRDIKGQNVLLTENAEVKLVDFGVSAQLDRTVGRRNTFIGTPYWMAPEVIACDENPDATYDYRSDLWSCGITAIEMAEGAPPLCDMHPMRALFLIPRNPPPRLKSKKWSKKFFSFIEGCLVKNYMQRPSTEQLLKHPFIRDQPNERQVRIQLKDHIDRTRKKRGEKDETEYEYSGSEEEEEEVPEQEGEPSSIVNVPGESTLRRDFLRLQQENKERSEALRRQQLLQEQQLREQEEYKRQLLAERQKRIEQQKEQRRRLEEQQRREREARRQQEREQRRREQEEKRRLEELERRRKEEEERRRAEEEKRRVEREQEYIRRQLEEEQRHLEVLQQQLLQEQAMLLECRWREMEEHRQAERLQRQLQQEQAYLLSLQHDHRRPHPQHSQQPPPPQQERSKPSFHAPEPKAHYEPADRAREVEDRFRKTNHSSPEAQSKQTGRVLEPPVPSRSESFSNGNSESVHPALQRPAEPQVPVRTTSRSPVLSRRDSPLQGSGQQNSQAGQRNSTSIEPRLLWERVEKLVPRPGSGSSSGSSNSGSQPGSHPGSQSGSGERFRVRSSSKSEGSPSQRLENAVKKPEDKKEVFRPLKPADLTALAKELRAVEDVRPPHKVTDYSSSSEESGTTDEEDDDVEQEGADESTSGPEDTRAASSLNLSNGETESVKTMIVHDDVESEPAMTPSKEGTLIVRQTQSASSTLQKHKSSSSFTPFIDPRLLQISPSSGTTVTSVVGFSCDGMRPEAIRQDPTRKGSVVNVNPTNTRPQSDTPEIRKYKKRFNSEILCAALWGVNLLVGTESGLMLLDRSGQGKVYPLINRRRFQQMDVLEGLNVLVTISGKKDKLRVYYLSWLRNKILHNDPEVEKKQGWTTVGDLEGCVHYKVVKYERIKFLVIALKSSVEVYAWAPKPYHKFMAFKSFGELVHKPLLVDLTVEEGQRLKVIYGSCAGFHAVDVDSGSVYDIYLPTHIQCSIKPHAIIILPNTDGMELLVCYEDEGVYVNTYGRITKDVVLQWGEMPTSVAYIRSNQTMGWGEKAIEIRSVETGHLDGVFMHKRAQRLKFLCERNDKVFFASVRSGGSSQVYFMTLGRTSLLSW

In the case of `CN1CCN(Cc2ccc(-c3cnc4[nH]cc(-c5ccc(N)nc5)c4c3)cc2)CC1` [Compound 7m, 5-(5-(4-((4-Methylpiperazin-1-yl)methyl)phenyl)-1H-pyrrolo[2,3-b]pyridin-3-yl)pyridin-2-amine], the EC50 in assay [1] (setting [2]) is 213 nM. Besides, in assay [1] (Homo sapiens, Neuron), the viability at 1 µM was determined as 76.1% and the Emax was found to be 76.1%. For the same compound, the remaining activity at 0.1 µM on MLK1/MAP3K9 (setting [3]) worked out at 96.7%. At MLK1/MAP3K9 (setting [4]), the remaining activity at 0.1 µM came out at 96.3%. For the same compound, on MLK3/MAP3K11, the “% Enzyme Activity Remaining (relative to DMSO controls), MLK3/MAP3K11, Data 1” value worked out at 67.62% and the “% Enzyme Activity Remaining (relative to DMSO controls), MLK3/MAP3K11, Data 2” value is reported as 67.85%. Moreover, at HGK/MAP4K4, the remaining activity at 0.025 µM came out at 38.4% and the remaining activity at 0.1 µM is 10.8%.

On to `CN1CCN(Cc2ccc(-c3cnc4[nH]cc(-c5ccc(C#N)cc5)c4c3)cc2)CC1` [Compound 7o, 4-(5-(4-((4-Methylpiperazin-1-yl)methyl)phenyl)-1H-pyrrolo[2,3-b]pyridin-3-yl)benzonitrile], for which, in assay [1] (setting [2]), the EC50 was determined as 775 nM. Moreover, in assay [1] (Homo sapiens, Neuron), the viability at 1 µM was 49.7% and the Emax came out at 68.6%. Besides, the remaining activity at 0.1 µM on MLK1/MAP3K9 (setting [3]) is 93.4%. Further, the remaining activity at 0.1 µM at MLK1/MAP3K9 (setting [4]) stood at 90.7%. Further, at MLK3/MAP3K11, the “% Enzyme Activity Remaining (relative to DMSO controls), MLK3/MAP3K11, Data 1” value amounted to 90.12% and the “% Enzyme Activity Remaining (relative to DMSO controls), MLK3/MAP3K11, Data 2” value is recorded as 92.65%. Further, on HGK/MAP4K4, the remaining activity at 0.025 µM worked out at 58.9% and the remaining activity at 0.1 µM was 29.3%.

With `CN1CCN(Cc2ccc(-c3cnc4[nH]cc(-c5cccc([N+](=O)[O-])c5)c4c3)cc2)CC1` [Compound 7p, 5-(4-((4-Methylpiperazin-1-yl)methyl)phenyl)-3-(3-nitrophenyl)-1H-pyrrolo[2,3-b]pyridine], the EC50 in assay [1] (setting [2]) was 293 nM. Also, in assay [1] (Homo sapiens, Neuron), the viability at 1 µM amounted to 116% and the Emax amounted to 131%. For the same compound, the remaining activity at 0.1 µM at MLK1/MAP3K9 (setting [3]) came to 62.7%. For the same compound, the remaining activity at 0.1 µM at MLK1/MAP3K9 (setting [4]) came out at 62.9%. Also, on MLK3/MAP3K11, the “% Enzyme Activity Remaining (relative to DMSO controls), MLK3/MAP3K11, Data 1” value was 40.84% and the “% Enzyme Activity Remaining (relative to DMSO controls), MLK3/MAP3K11, Data 2” value came to 42.08%. For the same compound, on HGK/MAP4K4, the remaining activity at 0.025 µM worked out at 3.92% and the remaining activity at 0.1 µM was 1.56%.

As for `CN1CCN(Cc2ccc(-c3cnc4[nH]cc(-c5cnn(C)c5)c4c3)cc2)CC1` [Compound 7s, 3-(1-Methyl-1H-pyrazol-4-yl)-5-(4-((4-methylpiperazin-1-yl)methyl)phenyl)-1H-pyrrolo[2,3-b]pyridine], the EC50 in assay [1] (setting [2]) was 2190 nM. In assay [1] (Homo sapiens, Neuron), the viability at 1 µM stood at 42.9% and the Emax came to 100%. Also, the remaining activity at 0.1 µM on MLK1/MAP3K9 (setting [3]) came to 94.8%. Moreover, the remaining activity at 0.1 µM on MLK1/MAP3K9 (setting [4]) was 94.3%. At MLK3/MAP3K11, the “% Enzyme Activity Remaining (relative to DMSO controls), MLK3/MAP3K11, Data 1” value worked out at 90.97% and the “% Enzyme Activity Remaining (relative to DMSO controls), MLK3/MAP3K11, Data 2” value is 90.45%. At HGK/MAP4K4, the remaining activity at 0.025 µM stood at 77.8% and the remaining activity at 0.1 µM came out at 37%.

Turning to `CN1CCN(Cc2ccc(-c3cnc4[nH]cc(-c5ccc(CN6CCOCC6)s5)c4c3)cc2)CC1` [Compound 7t, 4-((5-(5-(4-((4-Methylpiperazin-1-yl)methyl)phenyl)-1H-pyrrolo[2,3-b]pyridin-3-yl)thiophen-2-yl)methyl)morpholine], the EC50 in assay [1] (setting [2]) was 1380 nM. Further, in assay [1] (Homo sapiens, Neuron), the viability at 1 µM came to 43.6% and the Emax was 77.3%. For the same compound, the remaining activity at 0.1 µM at MLK1/MAP3K9 (setting [3]) came to 82.1%. Further, the remaining activity at 0.1 µM on MLK1/MAP3K9 (setting [4]) came to 80%. Besides, on MLK3/MAP3K11, the “% Enzyme Activity Remaining (relative to DMSO controls), MLK3/MAP3K11, Data 1” value is given as 83.49% and the “% Enzyme Activity Remaining (relative to DMSO controls), MLK3/MAP3K11, Data 2” value was 78.30%. Moreover, on HGK/MAP4K4, the remaining activity at 0.025 µM amounted to 74.3% and the remaining activity at 0.1 µM came to 33.4%.

With `CN1CCN(Cc2ccc(-c3cnc4[nH]cc(-c5ccc(S(C)(=O)=O)nc5)c4c3)cc2)CC1` [Compound 7u, 5-(4-((4-Methylpiperazin-1-yl)methyl)phenyl)-3-(6-(methylsulfonyl)pyridin-3-yl)-1H-pyrrolo[2,3-b]pyridine], in assay [1] (setting [2]), the 50% effective concentration (EC50) worked out at 4600 nM. Besides, in assay [1] (Homo sapiens, Neuron), the viability at 1 µM amounted to 33% and the Emax amounted to 72.9%. Moreover, the remaining activity at 0.1 µM on MLK1/MAP3K9 (setting [3]) is 93.9%. For the same compound, the remaining activity at 0.1 µM at MLK1/MAP3K9 (setting [4]) was determined as 95.9%. In addition, on MLK3/MAP3K11, the “% Enzyme Activity Remaining (relative to DMSO controls), MLK3/MAP3K11, Data 1” value is 92.02% and the “% Enzyme Activity Remaining (relative to DMSO controls), MLK3/MAP3K11, Data 2” value is 90.70%. On HGK/MAP4K4, the remaining activity at 0.025 µM is 92.9% and the remaining activity at 0.1 µM came to 52.3%.

For the compound `CN1CCN(Cc2ccc(-c3cnc4[nH]cc(-c5ccc6[nH]ncc6c5)c4c3)cc2)CC1` [Compound 7v, 5-(5-(4-((4-Methylpiperazin-1-yl)methyl)phenyl)-1H-pyrrolo[2,3-b]pyridin-3-yl)-1H-indazole], the EC50 in assay [1] (setting [2]) amounted to 143 nM. In assay [1] (Homo sapiens, Neuron), the viability at 1 µM came out at 115% and the Emax stood at 128%. For the same compound, the remaining activity at 0.1 µM on MLK1/MAP3K9 (setting [3]) is 43%. Moreover, the remaining activity at 0.1 µM on MLK1/MAP3K9 (setting [4]) was found to be 44%. At MLK3/MAP3K11, the “% Enzyme Activity Remaining (relative to DMSO controls), MLK3/MAP3K11, Data 1” value is given as 33.57% and the “% Enzyme Activity Remaining (relative to DMSO controls), MLK3/MAP3K11, Data 2” value is reported as 32.45%. For the same compound, at HGK/MAP4K4, the remaining activity at 0.025 µM stood at 13.8% and the remaining activity at 0.1 µM was 2.9%.

Consider `CC(=O)c1ccc(-c2c[nH]c3ncc(-c4ccc(CN5CCN(C)CC5)cc4)cc23)cc1` [Compound 7x, 1-(4-(5-(4-((4-Methylpiperazin-1-yl)methyl)phenyl)-1H-pyrrolo[2,3-b]pyridin-3-yl)phenyl)ethan-1-one], for which, in assay [1] (setting [2]), the EC50 was 322 nM. In assay [1] (Homo sapiens, Neuron), the viability at 1 µM was determined as 78.1% and the Emax worked out at 78.1%. Also, the remaining activity at 0.1 µM on MLK1/MAP3K9 (setting [3]) is 65.8%. For the same compound, the remaining activity at 0.1 µM at MLK1/MAP3K9 (setting [4]) amounted to 67.7%. At MLK3/MAP3K11, the “% Enzyme Activity Remaining (relative to DMSO controls), MLK3/MAP3K11, Data 1” value is 67.84% and the “% Enzyme Activity Remaining (relative to DMSO controls), MLK3/MAP3K11, Data 2” value was 65.08%. Also, at HGK/MAP4K4, the remaining activity at 0.025 µM worked out at 30.8% and the remaining activity at 0.1 µM turned out to be 7.1%.

As for `CN1CCN(Cc2ccc(-c3cnc4[nH]cc(-c5ccc(OC(F)(F)F)cc5)c4c3)cc2)CC1` [Compound 7z, 5-(4-((4-Methylpiperazin-1-yl)methyl)phenyl)-3-(4-(trifluoromethoxy)phenyl)-1H-pyrrolo[2,3-b]pyridine], the EC50 entry in assay [1] is on record as “Ambiguous”. In assay [1] (Homo sapiens, Neuron), the viability at 1 µM stood at 11.2% and the Emax was 12.8%. Moreover, the remaining activity at 0.1 µM at MLK1/MAP3K9 (setting [3]) was 98.6%. Moreover, the remaining activity at 0.1 µM on MLK1/MAP3K9 (setting [4]) came to 99.2%. On MLK3/MAP3K11, the “% Enzyme Activity Remaining (relative to DMSO controls), MLK3/MAP3K11, Data 1” value is listed as 93.59% and the “% Enzyme Activity Remaining (relative to DMSO controls), MLK3/MAP3K11, Data 2” value was 94.16%. Also, on HGK/MAP4K4, the remaining activity at 0.025 µM turned out to be 96.4% and the remaining activity at 0.1 µM came to 67.9%.
